Data from patent publication US8207143B2, “Methods of treating cancer and other conditions or disease states using LFMAU and LDT” (Yale University, priority 2005, dated 2012).

What was measured:
[1] = system: colon 38 mouse tumor; assay: Experiment 7: LDT and LFMAU alone and with 5-Fluorouracil/leucovorin on colon 38 in immuno-competent mice; format: in vivo; settings: LDT 100 mg/kg
Protocol: This tumor is passed from a solid tumor growing in mice. Several grams (assuming a gram per ml) are pressed through a sterile screen and suspended in a tissue culture media without phenol red or fetal calf serum (a balanced salt solution) at 2 ml/gram of tumor. Then 0.1 ml of this tumor suspension is implanted into the flank of the mouse. Ten days to two weeks after implantation (when the tumors could be measured with a caliper), unless otherwise indicated, the drug therapy was initiated.
In general, drugs are delivered at a rate of 0.1 ml per 10 grams of body weight. Every day the mice are weighed to deter the amount to be injected and as a index of toxicity.
The Tumor Volume is calculated from the measurements by the formula: length (mm)×width (mm)×width (mm)×II/6 (as a % of Day 1).
This experiment was designed to determine the effect of LDT and LFMAU alone and in combination with 5-Fluorouracil with leucovorin rescue on the growth of mouse tumor (colon 38) in immuno-competent mice. The drugs were administered to the mice according to the following schedule:
5FU/LV—150 mg/kg each i.p. once on day one
LDT—100 mg/kg p.o. b.i.d. for 5 days
LFMAU—50 mg/kg p.o. bid for 5 days
Combination groups received both treatments as per above schedules.

[2] = system: colon 38; assay: Experiment 8: LDT and LFMAU enhancement of oxaliplatin on colon 38 growth in C57BL6 female mice; format: in vivo, mouse
Protocol: This tumor is passed from a solid tumor growing in mice. Several grams (assuming a gram per ml) are pressed through a sterile screen and suspended in a tissue culture media without phenol red or fetal calf serum (a balanced salt solution) at 2 ml/gram of tumor. Then 0.1 ml of this tumor suspension is implanted into the flank of the mouse. Ten days to two weeks after implantation (when the tumors could be measured with a caliper), unless otherwise indicated, the drug therapy was initiated. In general, drugs are delivered at a rate of 0.1 ml per 10 grams of body weight. Every day the mice are weighed to deter the amount to be injected and as a index of toxicity. The Tumor Volume is calculated from the measurements by the formula: length (mm)×width (mm)×width (mm)×II/6 (as a % of Day 1). Experiment 8 tested the effects of LDT (L-dT) and LFMAU (15 mg/kg of each, same schedule as above) on the enhancement of anti-cancer drug effect (oxaliplatin 10 mg/kg i.p., once on day 1) on colon 38 growth in C57BL6 female mice.

[3] = system: HepG2; assay: Experiment 9: LDT enhancement of oxaliplatin on HepG2 in NCR Nu/Nu male mice; format: in vivo, human
Protocol: This is a human hepatocarcinoma that is grown in tissue culture as a monolayer in MEM with 10% FBS. Several flasks of cells are grown, then harvested with pancreatin and resuspended in a balanced salt solution at 10^8 per ml the 0.1 ml of this suspension is implanted into the flank of a NCR nude mouse (T cell deficient to grow human tissues). Then approximately 10 days later, when the tumor was measurable, the drug treatment started. In general, drugs are delivered at a rate of 0.1 ml per 10 grams of body weight. Every day the mice are weighed to deter the amount to be injected and as a index of toxicity. The Tumor Volume is calculated from the measurements by the formula: length (mm)×width (mm)×width (mm)×II/6 (as a % of Day 1). Experiment 9 tested the effects of LDT (15 mg/kg, same schedule as above) on the enhancement of anti-cancer drug effect (oxaliplatin 10 mg/kg i.p., once on day 1) on HepG2in immunodeficient NCR Nu/Nu male mice.

[4] = system: B16 melanoma; assay: Experiment 6: B16 melanoma injected subcutaneously into C57 BL6 mice; format: in vivo, mouse; settings: B16 melanoma s.c. in C57 BL6 mice; LFMAU 50 mg/kg B.I.D., 5 days pretreatment then ten days; Controls 831±474.5
Protocol: These experiments includes B16 melanoma which was injected subcutaneously into C57 BL6 mice which were pretreated for 5 days with LFMAU (B.I.D.) and then subsequently for ten days with LFMAU (BID.) at 50 mg/kg. with no other anti-cancer compound. This experiment yielded tumor size S.D. for the Controls of 831±474.5 and for the LFMAU treated mice of 160±150.3.

[5] = immunocompetent mice, LFMAU 50 mg/kg p.o. b.i.d. for 5 days

For Cc1cn([C@@H]2C[C@@H](O)[C@H](CO)O2)c(=O)[nH]c1=O [LDT, β-L-2′-deoxyribofuranosylthymidine], the “duration of the effect after therapy (FIG. 7)” value [1, 5] was “lasted well past the 5 day therapy”, the “effect on growth of colon 38 mouse tumor, alone (FIG. 7)” value [1, 5] was “slows down the growth” and the “effect on the anti-cancer activity of 5-FU/LV (FIG. 7)” value ([1]; with 5FU/LV 150 mg/kg each i.p. once on day one, LFMAU 50 mg/kg p.o. b.i.d. 5 days) was “significant (additive or synergistic)”. For the same molecule, the “enhancement of anti-tumor effect of Oxaliplatin on colon 38 (FIG. 8)” value ([2]; 15 mg/kg of each nucleoside, oxaliplatin 10 mg/kg i.p. once on day 1) was “clearly enhanced the anti-tumor effect of Oxaliplatin”, the “duration of the effect after treatment (FIG. 8)” value ([2]; 15 mg/kg with oxaliplatin 10 mg/kg i.p.) was “lasts well after the nucleoside treatment is stopped” and the “effect on HepG2 tumor, alone or in combination (FIG. 9)” value ([3]; LDT 15 mg/kg) was “effective alone or in combination with oxaliplatin”. For the same molecule, the “duration of the effect after treatment (FIG. 9)” value ([3]; LDT 15 mg/kg with oxaliplatin) was “lasts after the nucleoside treatment is stopped” and the “enhancement of anti-tumor effect of Oxaliplatin on HepG2 (FIG. 9)” value ([3]; LDT 15 mg/kg, oxaliplatin 10 mg/kg i.p. once on day 1) was “clearly enhanced the anti-tumor effect of Oxaliplatin”.
For Cc1cn([C@H]2O[C@@H](CO)[C@H](O)[C@H]2F)c(=O)[nH]c1=O [LFMAU, 2′-fluoro-5-methyl-β-L-arabinofuranosyluridine], the “tumor size S.D.” value [4] was 160±150.3.
